From ChEMBL document CHEMBL5338773, “First-in-Class Selective Inhibitors of the Lysine Acetyltransferase KAT8” (J Med Chem, 2023)
The source made the active and inactive calls. No cut-off for these calls is given here.

How the values were obtained:
[1] = molecular target: Histone acetyltransferase p300 (Homo sapiens) (UniProt Q09472); assay: Inhibition of recombinant human KAT3B (1287 to 1673 residues) using histone H3 peptide and [3H]-acetyl-coA as substrates at 200 uM incubated for 1 hrs by liquid scintillation counter analysis
[2] = molecular target: Histone acetyltransferase KAT2B (Homo sapiens) (UniProt Q92831); assay: Inhibition of recombinant human KAT2B (492 to 658 residues) using histone H3 peptide and [3H]-acetyl-coA as substrates at 200 uM incubated for 1 hrs by liquid scintillation counter analysis
[3] = molecular target: T1, Histone acetyltransferase KAT8 (Homo sapiens) (UniProt Q9H7Z6); assay: Inhibition of N-terminal 6His tagged KAT8 (173 to 458 residues) (unknown origin) expressed in Escherichia coli BL21(DE3) using biotinylated histone H4 peptide and [3H]Acetyl-CoA as substrates at 200 uM preincubated for 20 mins followed by substrate addition and measured after 4 hrs by MicroBeta microplate counter analysis; details: time 260.0 min
T1 sequence (whole entry): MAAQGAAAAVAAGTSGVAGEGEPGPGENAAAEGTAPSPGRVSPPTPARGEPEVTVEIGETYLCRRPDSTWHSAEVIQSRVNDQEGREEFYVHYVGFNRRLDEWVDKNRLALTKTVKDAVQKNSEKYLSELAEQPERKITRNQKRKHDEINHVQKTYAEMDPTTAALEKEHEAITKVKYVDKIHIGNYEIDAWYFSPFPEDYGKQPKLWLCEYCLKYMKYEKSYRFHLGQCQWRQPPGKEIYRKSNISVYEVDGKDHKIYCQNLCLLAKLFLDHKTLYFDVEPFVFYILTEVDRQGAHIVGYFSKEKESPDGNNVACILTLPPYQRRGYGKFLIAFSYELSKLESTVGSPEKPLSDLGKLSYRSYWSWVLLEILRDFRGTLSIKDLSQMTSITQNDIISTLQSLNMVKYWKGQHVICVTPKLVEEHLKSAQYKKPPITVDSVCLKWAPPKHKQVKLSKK

[4] = Inhibition of human recombinant KDAC8
Homo sapiens [5] = organism: Homo sapiens; assay: Inhibition of human recombinant KDAC1 using Boc-Lys-(Ac)-AMC as substrate at 50 to 100 uM incubated for 45 mins by fluorescence microplate reader analysis; details: dose 50-100 µM
[6] = molecular target: Histone deacetylase 2 (Homo sapiens) (UniProt Q92769); assay: Inhibition of human recombinant KDAC2 using Boc-Lys-(Ac)-AMC as substrate at 50 to 100 uM incubated for 45 mins by fluorescence microplate reader analysis; details: dose 50-100 µM
[7] = molecular target: Histone deacetylase 3 (Homo sapiens) (UniProt O15379); assay: Inhibition of human recombinant KDAC3 using Boc-Lys-(Ac)-AMC as substrate at 50 to 100 uM incubated for 45 mins by fluorescence microplate reader analysis; details: dose 50-100 µM
[8] = molecular target: T2, Protein deacetylase HDAC6 (Homo sapiens) (UniProt Q9UBN7); assay: Inhibition of human recombinant KDAC6 using Boc-Lys-(Ac)-AMC as substrate at 50 to 100 uM incubated for 45 mins by fluorescence microplate reader analysis; details: dose 50-100 µM
T2 sequence (whole entry): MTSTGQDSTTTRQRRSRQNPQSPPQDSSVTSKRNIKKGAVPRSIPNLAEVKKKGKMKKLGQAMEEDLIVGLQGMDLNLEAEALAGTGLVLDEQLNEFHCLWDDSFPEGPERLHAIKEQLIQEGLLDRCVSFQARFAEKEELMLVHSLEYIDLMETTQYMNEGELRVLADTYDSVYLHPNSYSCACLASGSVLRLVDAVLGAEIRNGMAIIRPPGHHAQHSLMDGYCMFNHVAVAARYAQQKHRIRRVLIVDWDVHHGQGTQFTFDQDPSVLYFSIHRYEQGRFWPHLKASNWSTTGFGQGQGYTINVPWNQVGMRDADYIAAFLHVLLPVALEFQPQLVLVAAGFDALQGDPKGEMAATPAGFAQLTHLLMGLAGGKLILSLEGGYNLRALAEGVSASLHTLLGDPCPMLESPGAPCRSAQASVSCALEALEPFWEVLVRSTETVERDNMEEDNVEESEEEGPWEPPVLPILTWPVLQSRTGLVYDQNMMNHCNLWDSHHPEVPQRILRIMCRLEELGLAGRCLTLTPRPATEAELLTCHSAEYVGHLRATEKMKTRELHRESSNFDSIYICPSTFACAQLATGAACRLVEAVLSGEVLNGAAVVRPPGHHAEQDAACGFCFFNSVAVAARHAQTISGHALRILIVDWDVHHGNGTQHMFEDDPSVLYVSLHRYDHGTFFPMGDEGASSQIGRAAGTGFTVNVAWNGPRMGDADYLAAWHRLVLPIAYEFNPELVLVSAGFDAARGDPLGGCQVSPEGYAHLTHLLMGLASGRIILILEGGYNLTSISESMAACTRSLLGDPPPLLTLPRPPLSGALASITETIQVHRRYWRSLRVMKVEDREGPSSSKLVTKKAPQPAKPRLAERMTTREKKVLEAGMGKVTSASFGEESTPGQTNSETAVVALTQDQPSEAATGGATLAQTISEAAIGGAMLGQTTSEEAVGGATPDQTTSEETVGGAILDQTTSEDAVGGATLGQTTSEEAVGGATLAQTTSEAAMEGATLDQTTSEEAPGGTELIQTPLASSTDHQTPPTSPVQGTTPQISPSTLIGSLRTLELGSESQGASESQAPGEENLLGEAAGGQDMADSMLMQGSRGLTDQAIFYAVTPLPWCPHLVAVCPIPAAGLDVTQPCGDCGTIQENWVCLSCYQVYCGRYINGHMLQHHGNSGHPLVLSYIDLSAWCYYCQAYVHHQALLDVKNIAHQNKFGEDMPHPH

Homo sapiens [9] = organism: Homo sapiens; assay: Inhibition of human recombinant KDAC8 using Boc-Lys-(Ac)-AMC as substrate at 50 to 100 uM incubated for 45 mins by fluorescence microplate reader analysis; details: dose 50-100 µM

Histone acetyltransferase KAT2B (Homo sapiens), sequence (Q92831 whole entry, looked up, the tested form may be a part): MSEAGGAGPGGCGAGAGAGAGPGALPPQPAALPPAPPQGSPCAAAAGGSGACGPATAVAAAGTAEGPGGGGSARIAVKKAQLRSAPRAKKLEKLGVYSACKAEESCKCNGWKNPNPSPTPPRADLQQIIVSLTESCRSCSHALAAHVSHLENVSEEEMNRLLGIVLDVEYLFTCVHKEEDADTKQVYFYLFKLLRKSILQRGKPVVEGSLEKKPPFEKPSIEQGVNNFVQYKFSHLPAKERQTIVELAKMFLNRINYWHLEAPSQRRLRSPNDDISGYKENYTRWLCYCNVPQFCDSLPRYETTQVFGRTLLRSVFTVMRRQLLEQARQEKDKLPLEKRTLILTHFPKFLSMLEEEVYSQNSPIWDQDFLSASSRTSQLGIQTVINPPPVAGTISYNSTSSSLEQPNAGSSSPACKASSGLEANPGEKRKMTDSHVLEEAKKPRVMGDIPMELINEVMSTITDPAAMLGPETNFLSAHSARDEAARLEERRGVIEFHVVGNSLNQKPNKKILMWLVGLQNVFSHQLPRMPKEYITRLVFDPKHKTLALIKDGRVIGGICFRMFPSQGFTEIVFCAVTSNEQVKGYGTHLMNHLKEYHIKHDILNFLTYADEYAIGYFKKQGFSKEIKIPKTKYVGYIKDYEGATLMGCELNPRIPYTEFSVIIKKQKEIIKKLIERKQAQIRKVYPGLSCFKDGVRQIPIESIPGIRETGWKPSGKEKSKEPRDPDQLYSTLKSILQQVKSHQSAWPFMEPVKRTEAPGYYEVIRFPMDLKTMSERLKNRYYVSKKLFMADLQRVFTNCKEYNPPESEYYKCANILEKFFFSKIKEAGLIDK
Histone acetyltransferase p300 (Homo sapiens), sequence (Q09472 whole entry, the tested form may be a part): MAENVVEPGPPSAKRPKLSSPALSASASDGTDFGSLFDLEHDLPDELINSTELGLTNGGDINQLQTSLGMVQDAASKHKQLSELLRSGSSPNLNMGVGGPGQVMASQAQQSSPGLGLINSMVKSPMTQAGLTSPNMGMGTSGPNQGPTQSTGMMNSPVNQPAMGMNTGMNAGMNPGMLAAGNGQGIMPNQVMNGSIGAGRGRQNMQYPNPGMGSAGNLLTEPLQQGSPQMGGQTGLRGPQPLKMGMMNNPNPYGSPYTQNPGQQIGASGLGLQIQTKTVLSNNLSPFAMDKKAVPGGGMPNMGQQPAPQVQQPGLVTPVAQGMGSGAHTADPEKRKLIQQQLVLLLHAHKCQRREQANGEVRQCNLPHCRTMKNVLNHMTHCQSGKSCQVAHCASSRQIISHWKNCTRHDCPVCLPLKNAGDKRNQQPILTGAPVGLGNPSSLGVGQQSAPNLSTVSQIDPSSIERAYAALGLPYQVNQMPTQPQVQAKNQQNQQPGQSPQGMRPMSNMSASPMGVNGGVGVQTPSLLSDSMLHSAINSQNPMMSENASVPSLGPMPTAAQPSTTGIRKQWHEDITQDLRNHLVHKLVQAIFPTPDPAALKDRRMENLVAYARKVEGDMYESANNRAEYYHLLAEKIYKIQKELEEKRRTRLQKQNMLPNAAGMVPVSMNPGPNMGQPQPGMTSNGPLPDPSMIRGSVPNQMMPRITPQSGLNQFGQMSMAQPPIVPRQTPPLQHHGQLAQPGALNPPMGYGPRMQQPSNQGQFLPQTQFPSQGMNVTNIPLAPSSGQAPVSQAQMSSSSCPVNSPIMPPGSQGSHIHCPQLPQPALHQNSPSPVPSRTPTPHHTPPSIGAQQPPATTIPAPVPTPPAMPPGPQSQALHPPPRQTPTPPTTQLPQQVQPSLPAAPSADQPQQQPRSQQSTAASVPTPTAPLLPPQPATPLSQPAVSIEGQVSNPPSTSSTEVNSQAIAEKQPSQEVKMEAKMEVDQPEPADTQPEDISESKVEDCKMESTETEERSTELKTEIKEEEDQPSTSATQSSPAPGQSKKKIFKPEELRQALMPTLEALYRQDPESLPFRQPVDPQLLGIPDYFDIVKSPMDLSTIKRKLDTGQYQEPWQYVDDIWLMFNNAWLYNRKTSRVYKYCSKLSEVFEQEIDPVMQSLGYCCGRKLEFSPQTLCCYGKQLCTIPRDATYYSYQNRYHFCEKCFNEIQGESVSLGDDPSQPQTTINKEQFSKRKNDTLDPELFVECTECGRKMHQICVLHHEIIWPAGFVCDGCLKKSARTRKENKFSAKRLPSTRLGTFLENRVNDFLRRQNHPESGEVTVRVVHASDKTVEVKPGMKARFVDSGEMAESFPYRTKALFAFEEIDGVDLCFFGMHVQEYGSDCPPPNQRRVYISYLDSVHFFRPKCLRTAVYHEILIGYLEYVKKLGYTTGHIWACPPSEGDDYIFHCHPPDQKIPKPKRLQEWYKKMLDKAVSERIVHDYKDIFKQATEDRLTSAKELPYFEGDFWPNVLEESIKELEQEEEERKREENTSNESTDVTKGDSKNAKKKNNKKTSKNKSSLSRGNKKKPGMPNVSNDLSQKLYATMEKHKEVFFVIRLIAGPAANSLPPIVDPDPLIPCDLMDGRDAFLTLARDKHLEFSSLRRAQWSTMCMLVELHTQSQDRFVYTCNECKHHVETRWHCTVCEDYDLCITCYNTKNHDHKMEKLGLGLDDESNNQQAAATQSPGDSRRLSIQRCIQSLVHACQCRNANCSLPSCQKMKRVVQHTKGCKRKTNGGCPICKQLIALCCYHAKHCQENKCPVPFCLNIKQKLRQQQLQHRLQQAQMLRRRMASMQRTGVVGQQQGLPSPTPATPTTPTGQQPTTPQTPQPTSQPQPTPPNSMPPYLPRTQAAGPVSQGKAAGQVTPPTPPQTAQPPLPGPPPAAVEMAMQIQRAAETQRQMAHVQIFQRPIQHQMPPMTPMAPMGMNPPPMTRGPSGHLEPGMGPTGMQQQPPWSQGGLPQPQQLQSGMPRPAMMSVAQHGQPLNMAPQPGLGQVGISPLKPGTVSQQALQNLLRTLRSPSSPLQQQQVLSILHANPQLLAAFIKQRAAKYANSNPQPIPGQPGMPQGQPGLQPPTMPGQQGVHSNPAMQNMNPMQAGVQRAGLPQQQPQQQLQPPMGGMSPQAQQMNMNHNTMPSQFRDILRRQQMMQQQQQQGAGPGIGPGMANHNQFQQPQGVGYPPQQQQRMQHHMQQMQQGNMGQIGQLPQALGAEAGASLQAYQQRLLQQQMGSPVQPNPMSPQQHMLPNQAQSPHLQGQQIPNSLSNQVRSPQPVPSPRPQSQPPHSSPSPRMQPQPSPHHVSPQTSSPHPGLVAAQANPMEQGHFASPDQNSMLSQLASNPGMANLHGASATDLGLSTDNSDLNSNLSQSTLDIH
Histone deacetylase 2 (Homo sapiens), sequence (Q92769 whole entry): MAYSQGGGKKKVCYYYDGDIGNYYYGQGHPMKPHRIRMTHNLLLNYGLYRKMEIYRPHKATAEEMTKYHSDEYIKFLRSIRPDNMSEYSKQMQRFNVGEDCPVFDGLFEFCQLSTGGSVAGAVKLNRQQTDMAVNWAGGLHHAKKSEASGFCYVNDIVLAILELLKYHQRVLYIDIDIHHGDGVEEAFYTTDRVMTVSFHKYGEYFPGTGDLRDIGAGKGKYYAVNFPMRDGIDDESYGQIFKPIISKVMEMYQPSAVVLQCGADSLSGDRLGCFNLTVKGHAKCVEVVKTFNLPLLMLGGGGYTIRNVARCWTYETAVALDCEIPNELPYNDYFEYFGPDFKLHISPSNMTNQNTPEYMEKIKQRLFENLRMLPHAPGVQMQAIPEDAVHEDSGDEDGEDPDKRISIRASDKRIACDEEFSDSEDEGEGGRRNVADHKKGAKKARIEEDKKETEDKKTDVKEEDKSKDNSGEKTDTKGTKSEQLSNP
Histone deacetylase 3 (Homo sapiens), sequence (O15379 whole entry): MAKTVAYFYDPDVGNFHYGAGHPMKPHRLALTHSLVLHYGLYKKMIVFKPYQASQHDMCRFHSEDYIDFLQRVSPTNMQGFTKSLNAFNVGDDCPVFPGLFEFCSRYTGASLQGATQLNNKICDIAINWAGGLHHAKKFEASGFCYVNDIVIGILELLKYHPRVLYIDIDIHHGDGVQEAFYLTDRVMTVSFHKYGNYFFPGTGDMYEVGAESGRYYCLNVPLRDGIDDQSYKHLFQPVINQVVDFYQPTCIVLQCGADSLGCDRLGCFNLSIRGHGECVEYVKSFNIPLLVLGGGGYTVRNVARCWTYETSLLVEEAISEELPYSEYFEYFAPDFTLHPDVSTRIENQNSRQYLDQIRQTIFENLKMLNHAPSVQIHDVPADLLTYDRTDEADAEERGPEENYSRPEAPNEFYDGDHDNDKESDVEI

Row | SMILES | inhibition [1] | inhibition [2] | other results
1 | CC(C)C1=NN(c2ccc(C(=O)O)cc2)C(=O)/C1=C\c1ccc[nH]1 | inactive | inactive | –
2 | CC1=NN(c2ccc(C(=O)O)cc2)C(=O)/C1=C\c1cccs1 | – | inactive | –
3 | CC1=NN(c2ccc(C(=O)O)cc2)C(=O)C1=Cc1ccco1 (mixture of isomers) | – | inactive | –
4 | CC1=NN(c2ccc(C(=O)NCCCN3CCCC3)cc2)C(=O)/C1=C\c1ccc[nH]1 | – | – | inhibition [3]: inactive
5 | CC1=NN(c2ccc(C(=O)O)cc2)C(=O)/C1=C(/C)c1ccc[nH]1 | inactive | inactive | –
6 | CC1=NN(c2ccc(C(=O)O)cc2)C(=O)/C1=C\c1cc(C(=O)c2ccccc2O)c[nH]1 | – | – | inhibition [3]: inactive
7 | CC1=NN(c2ccc(C(=O)O)cc2)C(=O)/C1=C\c1cc(C(=O)c2ccccc2C)c[nH]1 | – | inactive | –
8 | O=C(O)c1ccc(N2N=C(Cc3ccccc3)/C(=C/c3ccc[nH]3)C2=O)cc1 | inactive | inactive | –
9 | CC1=NN(c2ccc(C(=O)N(C)C)cc2)C(=O)/C1=C\c1ccc[nH]1 | inactive | inactive | –
10 | CC1=NN(c2ccc(C(=O)O)cc2)C(=O)/C1=C\c1cc(C(=O)c2ccccc2)c[nH]1 | – | inactive | –
11 | CC1=NN(c2ccc(C(=O)O)cc2)C(=O)/C1=C\c1cc(C(=O)c2ccccc2Cl)c[nH]1 | – | inactive | –
12 | CC1=NN(c2ccc(C(=O)O)cc2)C(=O)/C1=C\c1cc2ccccc2[nH]1 | – | inactive | –
13 | CC1=NN(c2ccc(C(=O)O)cc2)C(=O)/C1=C\c1ccccc1 | inactive | inactive | –
14 | Cc1nn(-c2ccc(C(=O)O)cc2)c(O)c1Cc1ccc[nH]1 | inactive | inactive | –
15 | CC1=NN(c2ccc(C(=O)O)cc2)C(=O)/C1=C\c1cc(C(=O)c2ccccc2[N+](=O)[O-])c[nH]1 | – | inactive | –
16 | CC1=NN(c2ccc(C(=O)O)cc2)C(=O)/C1=C\c1ccn[nH]1 | inactive | inactive | –

Row | SMILES | inhibition [1] | inhibition [2] | other results
17 | CC1=NN(c2ccc(C(=O)O)cc2)C(=O)/C1=C\c1ccc(-c2cc(C)c(C)cc2[N+](=O)[O-])o1 | – | inactive | IC50 [4]: 7 µM; inhibition [3]: inactive; inhibition (Homo sapiens [5]): Active; inhibition [6]: Active; inhibition [7]: Active; inhibition [8]: Active; inhibition (Homo sapiens [9]): Active
18 | CC1=NN(c2ccc(C(=O)O)cc2)C(=O)/C1=C\c1cc(C(=O)c2ccc(Cl)cc2)c[nH]1 | – | – | inhibition [3]: inactive
19 | CC1=NN(c2ccc(C(=O)NCc3ccccc3)cc2)C(=O)/C1=C\c1ccc[nH]1 | inactive | inactive | inhibition [3]: inactive
20 | CC1=NN(c2ccccc2)C(=O)/C1=C\c1cc(C(=O)c2ccccc2)c[nH]1 | – | – | inhibition [3]: inactive
21 | CC1=NN(c2ccc(C(N)=O)cc2)C(=O)/C1=C\c1ccc[nH]1 | inactive | inactive | –
22 | CCCCCCCc1ccc(CCc2cccc(O)c2C(=O)O)cc1 | – | inactive | –
23 | CC1=NN(c2ccc(C(=O)O)cc2)C(=O)/C1=C\c1c[nH]c2ccccc12 | – | inactive | –
24 | CC1=NN(c2ccc(C(=O)O)cc2)C(=O)/C1=C\c1cccn1C | – | inactive | –
25 | CC1=NN(c2cccc(C(=O)O)c2)C(=O)/C1=C\c1ccc[nH]1 | inactive | inactive | –
26 | CC1=NN(c2ccc(C(=O)O)cc2)C(=O)/C1=C\c1c[nH]cn1 | – | inactive | –
27 | CC1=NN(c2ccc(C(=O)O)cc2)C(=O)C1 | – | – | inhibition [3]: inactive
28 | CC1=NN(c2ccc(C(=O)O)cc2)C(=O)/C1=C\c1cc(C(=O)c2ccc([N+](=O)[O-])cc2)c[nH]1 | – | – | inhibition [3]: inactive
29 | CC1=NN(c2ccccc2)C(=O)/C1=C\c1cc(C(=O)c2ccccc2[N+](=O)[O-])c[nH]1 | – | – | inhibition [3]: inactive
30 | CC1=NN(c2ccc(C(=O)O)cc2)C(=O)/C1=C\c1cc[nH]c1 | inactive | inactive | –
31 | CC1=NN(c2ccc(C(=O)O)cc2)C(=O)/C1=C\c1cccn1-c1ccccc1 | – | inactive | –
32 | Cc1nn(-c2ccc(C(=O)O)cc2)c(O)c1Cc1ccccc1 | inactive | inactive | –
